Results on one molecule are retold here after US20150361063A1, “TREATMENT OF AMYLOIDOSIS BY COMPOUNDS THAT REGULATE RETROMER STABILIZATION” (Brandeis University, priority 2011, published 2015).

SMILES strings stand for the structures.

Data set [1] relates to animal models for cancer. Conditions: three different animal models for cancer; cited from earlier work.
The subject of data set [2] is mice. Conditions: up to 30 mg/kg; cited from earlier work.
Data set [3] deals with T1, intact retromer complex (Homo sapiens, UniProt Q96QK1+Q9UBQ0).
T1 construct: made in house
The experiment in a line: fluorescence thermal stability assay with reconstituted retromer. The class given is binding. An excerpt: We set out to screen and identify compounds that stabilized the active retromer complex, thereby preventing VPS35 degradation and increasing the steady-state level of the complex, which may reduce toxic Abeta. To cast our net wider, we set out to perform virtual screening by docking first, and we were able to do that because crystal structures of several retromer components and, more importantly, the VPS35-VPS29 binary complex, had been published. […] After two years of trial and error in overcoming technical obstacles, we finally succeeded in expressing and purifying each of the individual retromer components separately, and then reconstituting the complete complex in vitro.
We then obtained tested, in a real fluorescence stability assay using our reconstituted retromer, a total of about 50 compounds from our list of the 200 “top hits” in the docking run. It should be noted that there are a total of 7 sites that were identified from the computational surface mapping approach, and we considered anything with a G-score below −7.00 to be in the “top hits”. Four of the sites contained almost all the top hits, so compounds were actually assayed only if they were in the top 200 by G-score and were predicted to bind well to one of these four sites.

With `N=C(N)SCc1ccc(CSC(=N)N)s1` [compound 55712, [5-(carbamimidoylsulfanylmethyl)thiophen-2-yl]methyl carbamimidothioate], in data set [1], the antitumor activity result is given as “no antitumor activity”. Further, the toxicity to mice result in data set [2] is given as “not toxic”. Besides, in data set [3] (compounds from top docking hits of site 2 (VPS35-VPS29 interface)), the “hit in actual experimental assays” value was “positive hits”. Besides, in data set [3] (increase in thermal stability, reconstituted retromer, FIG. 1), the “stabilization of the intact retromer complex (thermal stability)” value is reported as 10 degrees Celsius.
